Test results as given in patent US20070212723A1, “Human sodium channel isoforms” (priority 2006, published 2007).

What was measured:
H9c2 cardiomyocytes = details: H9c2, serum free medium, 48 h
Excerpt: The rat embryonic cardiomyocyte cell line, H9c2 (ATCC cat # CRL-1446), or acutely isolated neonatal rat heart cardiomyocytes were used. Rat neonatal ventricular cells were isolated from 3-day-old Sprague-Dawley rats (Charles River Laboratories Wilmington, Mass.) using a kit and following the manufacturer's instructions (Worthington Biochemical Corp. Lakewood, N.J.). Cells cultured in Dulbecco's modified Eagle's medium (DMEM; ATCC, Manassas, Va.) with 10% fetal calf serum (ATCC) under standard tissue culture conditions at 37° C. to 70-80% confluence were exposed to AngII (Sigma, St. Louis, Mo.) or H2O2 (Sigma) in serum free culture medium (SFM) for a total of 48 h in triplicate in 24 well plates. Experiments were repeated three times. After dissociation with 0.125% trypsin-EDTA, 20 μL of 0.4% Trypan-blue (Sigma, St. Louis, Mo.) was added to each well, and a Trypan-blue exclusion viability assay was performed.

[1] = molecular target: T1, NF-κB binding to the scn5a promoter (Rattus norvegicus, UniProt Q63369+Q7TQN4); test: Electrophoretic mobility shift assay with H9c2 nuclear extracts; type: cell-based
T1 construct: endogenous in cells; host or cells: H9c2 cardiomyocytes (nuclear extract / cross-linked chromatin)
T1 sequence (Q63369 1-433 limits assumed): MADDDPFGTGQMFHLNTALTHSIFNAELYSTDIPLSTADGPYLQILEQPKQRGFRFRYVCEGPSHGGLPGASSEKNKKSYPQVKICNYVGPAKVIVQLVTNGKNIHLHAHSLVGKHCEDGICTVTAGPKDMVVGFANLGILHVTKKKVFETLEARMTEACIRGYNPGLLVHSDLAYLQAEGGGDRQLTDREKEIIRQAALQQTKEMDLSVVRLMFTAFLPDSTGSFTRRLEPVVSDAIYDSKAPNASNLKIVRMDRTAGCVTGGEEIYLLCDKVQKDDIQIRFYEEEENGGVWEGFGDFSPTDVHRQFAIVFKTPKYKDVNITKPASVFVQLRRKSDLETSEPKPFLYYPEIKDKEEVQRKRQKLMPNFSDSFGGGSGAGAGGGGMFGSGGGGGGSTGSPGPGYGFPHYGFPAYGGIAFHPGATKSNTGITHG
T1 sequence (Q7TQN4 whole entry): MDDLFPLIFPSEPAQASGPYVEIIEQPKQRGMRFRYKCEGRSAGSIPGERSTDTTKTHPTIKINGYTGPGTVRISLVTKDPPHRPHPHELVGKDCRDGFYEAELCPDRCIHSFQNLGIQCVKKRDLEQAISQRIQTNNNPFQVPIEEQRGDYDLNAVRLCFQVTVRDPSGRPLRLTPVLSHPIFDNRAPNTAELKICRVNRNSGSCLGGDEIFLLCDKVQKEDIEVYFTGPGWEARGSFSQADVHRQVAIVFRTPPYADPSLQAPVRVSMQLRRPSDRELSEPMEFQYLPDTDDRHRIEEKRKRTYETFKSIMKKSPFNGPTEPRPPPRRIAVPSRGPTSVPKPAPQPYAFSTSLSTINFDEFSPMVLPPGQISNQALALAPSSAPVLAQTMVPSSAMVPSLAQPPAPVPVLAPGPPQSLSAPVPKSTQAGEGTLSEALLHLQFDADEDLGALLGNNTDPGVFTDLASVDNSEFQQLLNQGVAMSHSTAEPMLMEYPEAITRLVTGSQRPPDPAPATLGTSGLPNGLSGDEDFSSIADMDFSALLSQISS
Excerpt: Approximately 5×10^6 cells were scraped for nuclear protein extraction by nuclear extract kit (Activemotif, Carlsbad, Calif.). A double-stranded oligonucleotide containing the consensus-binding sequence (bold) for […] ID NO. 32)) and NF-Kb mutant sequence ([NT] ID NO. 33)) from scn5a promoter were used as probes to assay for binding activity of the nuclear extracts. Protein-DNA complexes were detected using biotin end-labeled double-stranded DNA probes prepared by annealing complementary oligonucleotides. Oligonucleotides were labeled in a reaction using terminal deoxynucleotide transferase and biotin-N4-CTP (Pierce, Rockford, Ill.) following the biotin 3' end DNA labeling kit manual. The binding reaction was performed using the LightShift kit (Pierce). Briefly, 30 μg of nuclear extracts and binding buffer were incubated on ice for 5 min in a volume of 20 μL, then the labeled probe (20 fmol) was added, and the reaction was allowed to incubate for an additional 25 min. Following electrophoresis, the DNA-protein complexes were transferred onto nylon membranes and detected using chemiluminescence. TNF-α activated H9c2 cell nuclear extract (5 μg) was used as positive control. The reaction products were separated on a 6% retardation gel. Specificity was confirmed by addition of unlabelled probe in 200-fold excess.

[2] = molecular target: T2, NF-κB p50/p65 subunits on the cardiac Na+ channel promoter (Rattus norvegicus, UniProt Q63369+Q7TQN4); test: Chromatin immunoprecipitation (ChIP) assay in H9c2 cells; type: cell-based
T2 construct: endogenous in cells; host or cells: H9c2 cardiomyocytes (nuclear extract / cross-linked chromatin)
T2 sequence (Q63369 1-433 limits assumed): as the sequence (Q63369 1-433 limits assumed) above
T2 sequence (Q7TQN4 whole entry): as the sequence (Q7TQN4 whole entry) above
Procedure: Formaldehyde cross-linking and chromatin immunoprecipitation was performed as described in manufactory's manual (ChIP-IT™ kit, Activemotif). Briefly, proteins were crosslinked with chromatin using 1% formaldehyde in H9c2 cells with or without treatment. The cells were subsequently sonicated in lysis buffer, and an aliquot of the lysate was used in a PCR reaction. The remaining lysate was cleared with protein G beads. One half of the cleared lysate was incubated with p50 or p65 antibody, while the other half was used as a negative control without the antibody. After reversing the cross-linking, the immuno-complex was digested with proteinase K, and the DNA was purified. DNA was analyzed by PCR with the PicoMax Polymerase (Stratagene, La Jolla, Calif.) and primers specific to the APS3 promoter region.

[3] = system: cardiac sodium channel (scn5a) mRNA; test: Quantitative real-time RT-PCR of scn5a transcripts in H9c2 cells; type: cell-based, rat
[4] = system: cardiac sodium channel (scn5a) mRNA; test: Quantitative real-time RT-PCR of scn5a transcripts in acutely isolated neonatal cardiomyocytes; type: cell-based, rat
[5] = system: cardiac Na+ channel current; test: Patch-clamp determination of Na+ current in H9c2 cells; type: cell-based, rat; details: H9c2, 20 μmol/L H2O2, 48 h, step to -10 mV
Procedure: Three hours prior to the start of the patch-clamp experiments, H9c2 cells were trypsinized and plated on treated plastic coverslips. H9c2 cells were treated with or without H2O2 as indicated. Glass pipettes were pulled on a Sutter Model P-97 horizontal puller to a resistance of 0.5 to 1.5 MΩ. The glass pipettes were filled with a solution of (in mM) CsCl 60, Cesium Aspartate 80, EGTA sodium 11, HEPES 10, Na2ATP 5 and pH 7.2 with CsOH. The bath solution consisted of (in mM) Na 30, […] chloride 100, CsCl 5, CaCl2 2, MgCl2 1.2, HEPES 10, Glucose 5 and pH 7.4 with NaOH. Once a seal was established, a small amount of suction was applied to obtain the whole cell configuration. From a holding potential of −100 mV, peak currents obtained at −10 mV were used for comparison. Cells were tested at 25° C. Data were sampled at 10 kHz and later filtered at 5 kHz for analysis. Currents were recorded and analyzed with an Axopatch 200B amplifier, Axon Digidata 1230A A/D converter and pClamp software (Molecular Devices Corporation, Sunnyvale, Calif.).

scn5a promoter = test: scn5a promoter-reporter (pGL3-APS3) dual-luciferase assay in H9c2 cells; type: cell-based, rat; details: APS3 construct, H9c2, 20 μM H2O2, 48 h
[6] = system: scn5a promoter with mutated NF-κB binding site; test: Promoter-reporter assay with mutated NF-κB binding site (APS3-NF-κBm) in H9c2 cells; type: cell-based, rat; details: H9c2, 48 h, 100 nM AngII or 20 μM H2O2
Na+ current = Na+ current (Homo sapiens, UniProt Q14524); details: acute exposure, dependent on PKC activation (Ward et al. 1997); cited from earlier work
Na+ current, sequence (Q14524 whole entry): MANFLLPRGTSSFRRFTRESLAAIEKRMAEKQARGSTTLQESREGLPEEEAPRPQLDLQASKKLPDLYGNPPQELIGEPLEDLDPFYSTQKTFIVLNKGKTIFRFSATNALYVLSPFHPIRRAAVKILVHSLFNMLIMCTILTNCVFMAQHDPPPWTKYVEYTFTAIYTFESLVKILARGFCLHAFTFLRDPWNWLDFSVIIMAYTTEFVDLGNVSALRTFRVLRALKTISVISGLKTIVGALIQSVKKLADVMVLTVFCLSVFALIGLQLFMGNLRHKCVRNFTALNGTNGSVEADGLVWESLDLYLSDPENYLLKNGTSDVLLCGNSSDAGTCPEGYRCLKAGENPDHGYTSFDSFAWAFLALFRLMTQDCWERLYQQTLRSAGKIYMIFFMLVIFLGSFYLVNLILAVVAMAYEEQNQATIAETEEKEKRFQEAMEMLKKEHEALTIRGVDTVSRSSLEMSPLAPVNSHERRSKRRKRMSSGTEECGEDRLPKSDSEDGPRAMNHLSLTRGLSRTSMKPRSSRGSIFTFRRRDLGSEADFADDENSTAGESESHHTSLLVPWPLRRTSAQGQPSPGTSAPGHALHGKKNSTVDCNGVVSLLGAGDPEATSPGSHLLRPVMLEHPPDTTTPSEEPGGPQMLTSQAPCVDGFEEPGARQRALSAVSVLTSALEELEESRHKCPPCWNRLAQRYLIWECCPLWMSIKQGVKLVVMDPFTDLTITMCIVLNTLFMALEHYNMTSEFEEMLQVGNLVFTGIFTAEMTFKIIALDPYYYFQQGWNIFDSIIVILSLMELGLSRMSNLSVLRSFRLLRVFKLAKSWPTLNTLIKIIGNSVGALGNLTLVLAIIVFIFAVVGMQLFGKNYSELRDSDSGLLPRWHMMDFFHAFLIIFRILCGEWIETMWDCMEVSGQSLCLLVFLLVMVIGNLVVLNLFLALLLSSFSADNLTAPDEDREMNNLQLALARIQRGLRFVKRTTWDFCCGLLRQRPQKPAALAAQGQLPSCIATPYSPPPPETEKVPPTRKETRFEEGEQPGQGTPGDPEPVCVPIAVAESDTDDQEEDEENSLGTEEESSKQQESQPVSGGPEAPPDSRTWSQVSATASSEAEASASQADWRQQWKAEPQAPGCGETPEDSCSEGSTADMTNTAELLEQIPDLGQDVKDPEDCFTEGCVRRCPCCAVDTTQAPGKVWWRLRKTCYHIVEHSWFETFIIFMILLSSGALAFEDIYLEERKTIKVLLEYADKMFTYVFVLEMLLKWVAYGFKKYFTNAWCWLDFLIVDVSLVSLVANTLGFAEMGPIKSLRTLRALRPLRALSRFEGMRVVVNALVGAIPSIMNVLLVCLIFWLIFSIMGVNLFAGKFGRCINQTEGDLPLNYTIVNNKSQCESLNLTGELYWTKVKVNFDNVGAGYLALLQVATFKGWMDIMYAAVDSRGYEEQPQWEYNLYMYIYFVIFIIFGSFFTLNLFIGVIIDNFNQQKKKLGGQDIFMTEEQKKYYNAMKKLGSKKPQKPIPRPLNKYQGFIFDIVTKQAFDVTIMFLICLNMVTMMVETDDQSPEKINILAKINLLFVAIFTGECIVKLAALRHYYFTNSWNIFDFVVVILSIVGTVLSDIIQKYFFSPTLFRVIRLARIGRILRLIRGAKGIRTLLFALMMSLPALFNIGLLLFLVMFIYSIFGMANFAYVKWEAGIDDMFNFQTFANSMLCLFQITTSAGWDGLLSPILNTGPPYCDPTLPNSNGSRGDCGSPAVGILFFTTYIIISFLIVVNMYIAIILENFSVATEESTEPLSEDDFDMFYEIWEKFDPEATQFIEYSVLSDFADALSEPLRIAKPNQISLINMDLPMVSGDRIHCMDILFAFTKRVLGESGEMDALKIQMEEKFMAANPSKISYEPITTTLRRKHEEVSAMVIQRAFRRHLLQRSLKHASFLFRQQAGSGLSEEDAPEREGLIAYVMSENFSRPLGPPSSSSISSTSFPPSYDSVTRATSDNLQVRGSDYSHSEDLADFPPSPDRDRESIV

Compound: CC[C@H](C)[C@H](NC(=O)[C@H](Cc1ccc(O)cc1)NC(=O)[C@@H](NC(=O)[C@H](CCCNC(=N)N)NC(=O)[C@@H](N)CC(=O)O)C(C)C)C(=O)N[C@@H](Cc1cnc[nH]1)C(=O)N1CCC[C@H]1C(=O)N[C@@H](Cc1ccccc1)C(=O)O [AngII, angiotensin II]
- AngII concentrations tolerated (cell viability) (H9c2 cardiomyocytes): 1 to 500 nM

Compound: O=C(/C=C/c1ccc(O)c(O)c1)OCCc1ccccc1 [CAPE, caffeic acid phenethyl ester]
- effect on NF-κB binding to scn5a promoter probe ([1]; CAPE 10 μM, H9c2 treated with H2O2): blocked
- effect on binding of p50 and p65 subunits to the channel promoter ([2]; H9c2, CAPE): could prevent biding of both subunits

Compound: catalase
- effect on AngII-mediated downregulation of Na+ channel mRNA ([3]; H9c2, pretreatment with PEG-catalase 250 U/mL, AngII 100 nM, 48 h): prevented
- effect on AngII-mediated downregulation of Na+ channel mRNA ([4]; neonatal cardiomyocytes, pretreatment with PEG-catalase 250 U/mL, AngII 2 nM, 48 h): prevented

Compound: OO [H2O2]
- reduction in Na+ channel mRNA ([3]; H9c2, 20 μmol/L H2O2, 48 h): 46.9%
- reduction in Na+ channel mRNA ([4]; isolated neonatal rat myocytes, 40 nM H2O2, 48 h): 45.4%
- decrease in peak Na+ current [5]: 46%
- depression of scn5a Na+ channel promoter activity (scn5a promoter): 42.3%
- change in promoter activity of construct with mutated NF-κB binding site [6]: no significant change in activity
- NF-κB binding activity to scn5a promoter probe ([1]; H9c2 nuclear extracts, 48 h treatment): increased
- NF-κB subunits on the cardiac Na+ channel promoter ([2]; H9c2, AngII or H2O2 treatment): formation of the complete p50-p65 NF-κB heterodimer
- effect on inactivation of the Na+ current (Na+ current): slowing of inactivation
